We go through 1 cell line from the supplement of paper PMC10307832.

What all share (test): relative viability (nuclei count vs DMSO), 5 days (fraction); higher = more cells survive
Compound in the assay “Zebularine + Pemetrexed”: O=c1ncccn1[C@@H]1O[C@H](CO)[C@@H](O)[C@H]1O [Zebularine] + Nc1nc2[nH]cc(CCc3ccc(C(=O)N[C@@H](CCC(=O)O)C(=O)O)cc3)c2c(=O)[nH]1 [Pemetrexed] (partner 0.2 µM)
In short, it runs like this:
(§1)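 Lung cancer cell lines in 1536-well plates got either a single drug or a fixed anchor-drug dose together with five library-drug doses (not always all listed) in √10 steps, by pin tool, on the day after seeding. Nuclei were counted after 5 days, and relative viability is the treated-to-vehicle ratio of nuclei counts. Values are medians of duplicate plates.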

Compound in the assay “Zebularine + Luminespib”: O=c1ncccn1[C@@H]1O[C@H](CO)[C@@H](O)[C@H]1O [Zebularine] + CCNC(=O)c1noc(-c2cc(C(C)C)c(O)cc2O)c1-c1ccc(CN2CCOCC2)cc1 [Luminespib] (partner 0.01 µM)
In short, it runs like this:
as §1

Compound in the assay “BI-D1870 + Trametinib”: CC(C)CCN1c2nc(Nc3cc(F)c(O)c(F)c3)ncc2N(C)C(=O)C1C [BI-D1870] + CC(=O)Nc1cccc(-n2c(=O)n(C3CC3)c(=O)c3c(Nc4ccc(I)cc4F)n(C)c(=O)c(C)c32)c1 [Trametinib] (partner 0.02 µM)
A digest of the protocol: as §1

Compound in the assay “Zebularine + Bortezomib”: O=c1ncccn1[C@@H]1O[C@H](CO)[C@@H](O)[C@H]1O [Zebularine] + CC(C)C[C@H](NC(=O)[C@H](Cc1ccccc1)NC(=O)c1cnccn1)B(O)O [Bortezomib] (partner 0.002 µM)
In short, it runs like this:
as §1

For the cell line UMC-11, the relative viability in the assay with Zebularine + Pemetrexed (first compound 1 µM) came to 0.809; with Zebularine + Pemetrexed (first compound 3.162 µM), 0.724; in the assay with Zebularine + Pemetrexed (first compound 10 µM), 0.388; with Zebularine + Pemetrexed (first compound 31.62 µM) it was 0.649; with Zebularine + Pemetrexed (first compound 100 µM), 0.417; with Zebularine + Luminespib (first compound 1 µM), 1.06. The relative viability in the assay with Zebularine + Luminespib (first compound 3.162 µM) was 0.996; with Zebularine + Luminespib (first compound 10 µM), 0.686; in the assay with Zebularine + Luminespib (first compound 31.62 µM), 0.62; in the assay with Zebularine + Luminespib (first compound 100 µM), 0.316; with BI-D1870 + Trametinib (first compound 0.04 µM) it was 0.701; in the assay with BI-D1870 + Trametinib (first compound 0.1265 µM), 0.682. Besides, the relative viability with BI-D1870 + Trametinib (first compound 0.4 µM) was 0.688; in the assay with BI-D1870 + Trametinib (first compound 1.265 µM) it was 0.774; in the assay with BI-D1870 + Trametinib (first compound 4 µM), 0.352; with Zebularine + Bortezomib (first compound 1 µM) it was 0.728; with Zebularine + Bortezomib (first compound 3.162 µM), 0.844; with Zebularine + Bortezomib (first compound 10 µM), 0.45. Moreover, the relative viability in the assay with Zebularine + Bortezomib (first compound 31.62 µM) is 0.538; with Zebularine + Bortezomib (first compound 100 µM), 0.297.
